Tests used:
Assay in all cases: Bliss excess, mean over the matrix (fraction); higher = more synergy
[1] = system: SNU-449 (Hepatocellular Carcinoma)
Outline: (§1)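 Cell lines in DMEM/F12 or RPMI with 10% FBS were plated in 1536-well plates, held 24 hours at 37°C, 5% CO2, then given two-drug dose matrices for 72 hours (DMSO typically 0.2%). Viability was read by CellTiter-Glo 2.0 luminescence and scaled as inhibition from 0 (vehicle wells) to 1 (blank wells). Combination Emax is the second-highest inhibition in the matrix; Bliss excess is observed combination effect minus expected EA + EB − EA·EB, EA and EB being single-agent effects.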

[2] = system: HuH-7 (Hepatocellular Carcinoma)
Outline: as §1

[3] = system: SW1573 (Lung Adenocarcinoma)
Outline: as §1

[4] = system: BFTC-909 (Kidney Carcinoma)
Outline: as §1

[5] = system: Detroit562 (Head and Neck Carcinoma)
Outline: as §1

[6] = system: WSU-NHL (B-Cell Non-Hodgkin's Lymphoma)
Outline: as §1

[7] = system: LNZTA3WT4 (Low Grade Glioma)
Outline: as §1

[8] = system: ESS-1 (Other Solid Carcinomas)
Outline: as §1

[9] = system: OE21 (Esophageal Squamous Cell Carcinoma)
Outline: as §1

[10] = system: LCLC-97TM1 (Non-Small Cell Lung Carcinoma)
Outline: as §1

[11] = system: YAPC (Pancreatic Carcinoma)
Outline: as §1

[12] = system: ALL-PO (B-Lymphoblastic Leukemia)
Outline: as §1

[13] = system: OVCAR-5 (Ovarian Carcinoma)
Outline: as §1

[14] = system: SAS (Oral Cavity Carcinoma)
Outline: as §1

[15] = system: FTC-133 (Thyroid Gland Carcinoma)
Outline: as §1

[16] = system: HuCCT1 (Biliary Tract Carcinoma)
Outline: as §1

[17] = system: HH (T-Cell Non-Hodgkin's Lymphoma)
Outline: as §1

BPH-1 (Non-Cancerous) = system: BPH-1 (Non-Cancerous)
Outline: as §1

GAMG (Glioblastoma) = system: GAMG (Glioblastoma)
Outline: as §1

EW-11 (Ewing's Sarcoma) = system: EW-11 (Ewing's Sarcoma)
Outline: as §1

Compound	Bliss excess [1]	Bliss excess [2]	Bliss excess [3]	Bliss excess [4]	Bliss excess [5]	Bliss excess [6]	Bliss excess [7]	Bliss excess [8]	Bliss excess [9]	Bliss excess [10]	Bliss excess [11]	Bliss excess [12]	Bliss excess [13]	Bliss excess [14]	Bliss excess [15]	Bliss excess [16]	Bliss excess [17]	Bliss excess (BPH-1 (Non-Cancerous))	Bliss excess (GAMG (Glioblastoma))	Bliss excess (EW-11 (Ewing's Sarcoma))
COc1cc2ncnc(Nc3ccc(F)c(Cl)c3)c2cc1OCCCN1CCOCC1 [Gefitinib] + CC(C)n1c(=O)n(C)c2cnc3cc(F)c(-c4ccc(OCCCN5CCCCC5)nc4)cc3c21 [AZD1390] (first compound max 10 µM, 7x7, partner max 0.3 µM)	-0.0529	-0.042	-0.0726	-0.0614	-0.0476	-0.0499	-0.0393	-0.0518	-0.0696	-0.0389	-0.0233	-0.0558	-0.0846	-0.0454	-0.0752	-0.0347	-0.0263	-0.0347	-0.0443	-0.0563
CN(CCO)CC[C@H](CSc1ccccc1)Nc1ccc(S(=O)(=O)NC(=O)c2ccc(N3CCC([C@@H](O)c4ccccc4-c4ccc(Cl)cc4)CC3)cc2)cc1S(=O)(=O)C(F)(F)F [AZD4320] + CCN(CCO)CCCOc1ccc2c(Nc3cc(CC(=O)Nc4cccc(F)c4)[nH]n3)ncnc2c1 [AZD2811] (first compound max 1 µM, 7x7, partner max 1 µM)	-0.0649	-0.0268	0.004	0.0605	0.0043	-0.0295	-0.0224	0.21	-0.0212	0.0642	-0.0464	-0.009	-0.0458	-0.037	0.0384	-0.0283	-0.0135	-0.0079	0.119	-0.0439
Cc1cc2ncnn2cc1Nc1ncc2c(n1)n(C1CCOCC1)c(=O)n2C [AZD7648] + C=CCn1c(=O)c2cnc(Nc3ccc(N4CCN(C)CC4)cc3)nc2n1-c1cccc(C(C)(C)O)n1 [AZD1775] (first compound max 10 µM, partner max 1 µM)	0.0041	0.0039	-0.0452	0.0097	0.0575	0.0072	-0.0049	0.0525	-0.0013	0.0234	0.0325	0.0488	-0.0038	0.0079	0.0069	0.0065	-0.0461	0.0321	-0.005	-0.029
